The values that follow come from article PMC9589885, “A designed antimicrobial peptide with potential ability against methicillin resistant Staphylococcus aureus” (Frontiers in Microbiology, 2022).

For orientation: amount remaining means the share of the starting amount still present when the sample was taken.

In brackets after ≈: the same amount, converted by molar mass. Read-outs that look alike come from different tables or passages of the source. Residues, ends and D or L forms follow the SMILES beside them. Where only a bound is given, the exact number is not on record here.

Series [1] concerns Staphylococcus aureus (ATCC6538). Put plainly: microbe, parasite or virus in culture. The format is cell-based. The text has this:
(§1) The standard strain of Staphylococcus aureus (S. aureus, ATCC6538), Escherichia coli (E. coli, ATCC25922), Pseudomonas aeruginosa (P. aeruginosa, ATCC9027), Acinetobacter baumannii (A. baumannii, ATCC19606) and Candida albicans (C. albicans, ATCC/0331) used in this experiment was purchased from the microbial strain collection center of Guangdong Province. The methicillin resistant strain of Staphylococcus aureus (MRSA, SAZ) and clinically isolated antibiotic-resistance strains (SA115775 and SA15192) were clinically isolated from the First Affiliated Hospital of Kunming Medical University. The strains of C. albicans were cultured in 1/3 YM Medium (HB0297-1) + 2/3 RPMI 1640 medium (10-040-CVR, Corning), and other bacterial strains were cultured in Luria-Bertani (LB: 2 g tryptone, 1 g yeast extract, 2 g sodium chloride and 200 ml deionized water) broth.
(§2) Briefly, bacteria strains were diluted and adjusted to the concentration of 2 × 10^5 CFU/ml using RPMI 1640 medium. Samples were prepared as a stock solution in saline, and then diluted to a series of concentrations. 100 μl bacterial suspension and 100 μl samples at the indicated concentration were put together in 96-well plates and incubated at 37°C for 16 h. Finally, an absorbance at 600 nm was measured by a microplate reader to estimate bacterial growth. The MIC was defined as the lowest concentration where the bacterial growth could not be detected completely.

Series [2] concerns Staphylococcus aureus (SA115775). The experiment in a line: microbe, parasite or virus in culture. The format is cell-based. As to conditions: 16 h.
Text: as §1, §2

Series [3] concerns Staphylococcus aureus (SA15192). Put plainly: microbe, parasite or virus in culture. It counts as cell-based. As to conditions: 16 h.
Text: as §1, §2

The subject of series [4] is methicillin-resistant Staphylococcus aureus (MRSA-Z). The experiment in a line: microbe, parasite or virus in culture. It counts as cell-based. As to conditions: 16 h.
Text: as §1, §2

Series [5] concerns S. aureus (ATCC6538). Put plainly: Bacterial killing kinetic assay. The format is cell-based, Staphylococcus aureus. As to conditions: 1 ×, 5 × or 10 × MIC; RPMI 1640 with 10% FBS, 37°C; not completely killed in the time given. The method, then: (§3) The bacterial killing kinetic assay was performed according to the previous method with minor modifications ([Wei et al., 2015]). S. aureus (ATCC6538) and methicillin resistant strain of Staphylococcus aureus (MRSA, SAZ) were washed three times with saline and then resuspended with RPMI 1640 medium containing 10% FBS at the concentration of 2 × 10^5 CFU/ml. […] Ten microliter aliquots were extracted at each time point and diluted with fresh broth for 100 times, 100 μl of the dilution was seeded on agar plates. After incubation at 37°C for 24 h, the viable colonies were determined.
(§4) Ten microliter aliquots were extracted at each time point and diluted with fresh broth for 100 times, 100 μl of the dilution was seeded on agar plates. After incubation at 37°C for 24 h, the viable colonies were determined for the killing kinetic analysis. Data represent mean ± SD values of three independent experiments. *p < 0.05, **p < 0.01, ***p < 0.001.

In series [6] the test system is methicillin-resistant S. aureus (MRSA-Z). Put plainly: Bacterial killing kinetic assay. It counts as cell-based, Staphylococcus aureus. As to conditions: 1 ×, 5 × and 10 × MIC; RPMI 1640 with 10% FBS, 37°C. As for the experimental part:
as §3, §4

Series [7] relates to S. aureus (ATCC6538). Put plainly: Staphylococcus aureus intraperitoneal infection model. It counts as in vivo, C57BL/6 mice. As to conditions: CFU 4 h after administration, n = 6. The method, then: S. aureus (ATCC6538) and methicillin resistant strain of Staphylococcus aureus (MRSA, SAZ) were resuspended by saline with the concentration of 1 × 10^9 CFU/ml. […] 2 h later, samples were intraperitoneally injected with the concentration indicated. After 4 h of administration, mice were sacrificed, blood was collected via retro-orbital bleeding and lungs were harvested and homogenized in 1 ml of saline with a hand tissue grinder. 10-fold serial dilutions of the homogenates and blood were made in pyrogen-free NaCl and equal volumes were plated on LB agar plates and incubated at 37°C. CFU were counted after 24 h.
After 4 h of administration, mice were sacrificed, blood (A,C) and lung (B,D) were collected for the measurement of bacterial loads. Data represent mean ± SD values of six independent experiments. *p < 0.05, **p < 0.01, ***p < 0.001.

Series [8] deals with Candida albicans (ATCC/0331). The format is cell-based. As to conditions: C. albicans ATCC/0331; broth dilution, 37°C, 16 h.
Text: as §1, §2
A general note: In broth dilution the organism is exposed to a series of concentrations in liquid medium.

Series [9] relates to Escherichia coli (ATCC25922). The format is cell-based. As to conditions: E. coli ATCC25922; broth dilution, 37°C, 16 h.
Text: as §1, §2

Series [10] deals with human mature red blood cells. As to conditions: 1.32–169.01 μM, 30 min, 37°C, absorbance 540 nm, 3 independent experiments. As for the experimental part:
(§5) Hemolysis of testing sample was calculated as the percentage of Triton X-100-induced hemolysis.
as §5

Another series deals with C57BL/6 mice. Put plainly: In vivo acute toxicity assay. Set-up: species or system mouse. As to conditions: single dose 20 mg/kg and 40 mg/kg, intravenous (tail vein), male C57BL/6, n = 10, recorded 12-72 h. As for the experimental part: Male C57BL/6 mice aged 6–8 weeks were randomly divided into 2 groups with 10 mice in each group. […] Then the death of mice was recorded at 12 h, 24 h, 36 h, 48 h, 60 h and 72 h, respectively.
[picture] Supplementary Figure 1. […] Male C57BL/6 mice aged 6–8 weeks were randomly divided into 2 groups (n = 10). […] Then the death of mice was recorded at 12 h, 24 h, 36 h, 48 h, 60 h and 72 h respectively.

The test system of series [11] is S. aureus (ATCC6538, MRSA-Z, SA15192, SA115775). As to conditions: 4.23 mM in 100% human plasma, 0-10 h, 37°C, disk diffusion, zone of inhibition, two independent experiments. As for the experimental part: Residual antibacterial activity for each incubation time point was evaluated by disk diffusion assay. In brief, bacteria were seeded on nutrient agar plates, 6 mm paper disks were placed on top and 10 μl aliquots of the plasma-peptide mixture was added to the paper disks. After 24 h incubation, the inhibitory zones against S. aureus (ATCC6538, MRSA-Z, SA15192, SA115775) were measured and recorded.
Data represent mean ± SD of two independent experiments.

Another series concerns HEK293T cells. As to conditions: up to 169.01 μM, 24 h, CCK8, absorbance 450 nm; 3 independent experiments.
A further series in a line: in vitro. As to conditions: human, human plasma.
Series [12] relates to Acinetobacter baumannii (ATCC19606). Put plainly: MIC, broth dilution. As to conditions: A. baumannii ATCC19606, 37°C, 16 h. It counts as cell-based.
Text: as §1
(§6) Briefly, bacteria strains were diluted and adjusted to the concentration of 2 × 10^5 CFU/ml using RPMI 1640 medium. Samples were prepared as a stock solution in saline, and then diluted to a series of concentrations. […] Finally, an absorbance at 600 nm was measured by a microplate reader to estimate bacterial growth. The MIC was defined as the lowest concentration where the bacterial growth could not be detected completely.

Series [13] deals with Pseudomonas aeruginosa (ATCC9027). Put plainly: MIC, broth dilution. It counts as cell-based. As to conditions: P. aeruginosa ATCC9027, 37°C, 16 h.
Text: as §1, §6

Experimental for in vitro: After incubation for 0, 2, 4, 6, 8 and 10 h at 37°C, an aliquot of 10 μl sample was taken for protein precipitation with an equal volume of 4% H3PO4, the mixture was vortex-mixed for 2 min and then centrifuged at 13000 rpm for 15 min at 4°C. 3 μl of supernatant was analyzed using reverse-phase high performance liquid chromatography (RP-HPLC), and the remaining peptide was calculated through the integrated peak area.

For the compound `CN[C@H](CC(C)C)C(=O)N[C@H]1C(=O)N[C@@H](CC(N)=O)C(=O)N[C@H]2C(=O)N[C@H]3C(=O)N[C@H](C(=O)N[C@H](C(=O)O)c4cc(O)cc(O)c4-c4cc3ccc4O)[C@H](O)c3ccc(c(Cl)c3)Oc3cc2cc(c3O[C@@H]2O[C@H](CO)[C@@H](O)[C@H](O)[C@H]2O[C@H]2C[C@](C)(N)[C@H](O)[C@H](C)O2)Oc2ccc(cc2Cl)[C@H]1O` [Vancomycin, vancomycin], the MIC in series [1] (Staphylococcus aureus, ATCC6538, 16 h) came to 1.08 µM (≈ 1.57 µg/mL); in [2] (Staphylococcus aureus), 1.08 µM (≈ 1.57 µg/mL); in series [3] (Staphylococcus aureus) it was 2.16 µM (≈ 3.13 µg/mL); in series [4] (Staphylococcus aureus, MRSA), 0.54 µM (≈ 0.783 µg/mL). Further, in the series on S. aureus (ATCC6538) [5], the “Time to completely kill the S. aureus” value is reported as more than 240 min. Further, the “Time to completely kill the MRSA-Z” value in series [6] came to 240 min. For the same compound, in the series on S. aureus (ATCC6538) [7] (GW18 2, 4, 8 mg/kg or vancomycin 2, 4 mg/kg ip 2 h after infection (2 × 10^8 CFU/mouse ip)), the “Dissemination of S. aureus (ATCC6538) from the peritoneal cavity to the blood” value is recorded as “significantly suppressed”. The “Dissemination of S. aureus (ATCC6538) from the peritoneal cavity to the lung” value with S. aureus (ATCC6538) [7] (GW18 2, 4, 8 mg/kg or vancomycin 2, 4 mg/kg ip 2 h after infection) is given as “significantly suppressed”.

As to `COc1cccc(OC)c1C(=O)N[C@@H]1C(=O)N2[C@@H]1SC(C)(C)[C@@H]2C(=O)O` [Methicillin, methicillin], the MIC in series [1] (Staphylococcus aureus, S. aureus ATCC6538, broth dilution, RPMI 1640, 2 × 10^5 CFU/ml, 37°C, 16 h, absorbance 600 nm, read-out: MIC) is 1.94 µM (≈ 0.738 µg/mL); in series [2] (Staphylococcus aureus, clinical isolate SA115775, broth dilution, RPMI 1640, 2 × 10^5 CFU/ml, 37°C, read-out: MIC) it was 62.1 µM (≈ 23.6 µg/mL); in series [3] (Staphylococcus aureus, clinical isolate SA15192, broth dilution, RPMI 1640, 2 × 10^5 CFU/ml, 37°C, read-out: MIC) it was 15.5 µM (≈ 5.91 µg/mL); in series [4] (Staphylococcus aureus, MRSA-Z, broth dilution, RPMI 1640, 2 × 10^5 CFU/ml, 37°C, absorbance 600 nm, read-out: MIC), more than 124 µM.

Regarding `C[C@H](NC(=O)CNC(=O)[C@H](Cc1c[nH]c2ccccc12)NC(=O)CN)C(=O)N[C@@H](CCCCN)C(=O)N[C@@H](CCCNC(=N)N)C(=O)N[C@@H](Cc1c[nH]c2ccccc12)C(=O)NCC(=O)N[C@@H](CCCCN)C(=O)N[C@@H](CCCNC(=N)N)C(=O)NCC(=O)N[C@@H](Cc1c[nH]c2ccccc12)C(=O)N[C@@H](CCCCN)C(=O)N[C@@H](Cc1c[nH]c2ccccc12)C(=O)N[C@@H](CCCCN)C(=O)N[C@@H](CCCNC(=N)N)C(=O)N[C@@H](Cc1c[nH]cn1)C(=O)N[C@@H](Cc1c[nH]c2ccccc12)C(N)=O` [GW18] (H-GWGAKRWGKRGWKWKRHW-NH2), the MIC is 1.32 µM (≈ 3.12 µg/mL) in series [1] (S. aureus ATCC6538, broth dilution, RPMI 1640, 2 × 10^5 CFU/ml, 37°C, 16 h, absorbance 600 nm, read-out: MIC); 1.32 µM (≈ 3.12 µg/mL) in series [2] (clinical isolate SA115775, broth dilution, RPMI 1640, 2 × 10^5 CFU/ml, 37°C, read-out: MIC); 1.32 µM (≈ 3.12 µg/mL) in [3] (clinical isolate SA15192, broth dilution, RPMI 1640, 2 × 10^5 CFU/ml, 37°C, read-out: MIC); 1.32 µM (≈ 3.12 µg/mL) in [4] (MRSA-Z, broth dilution, RPMI 1640, 2 × 10^5 CFU/ml, 37°C, absorbance 600 nm, read-out: MIC); more than 20 µM in [8]; 5.28 µM (≈ 12.5 µg/mL) in [9]. Further, the Hemolytic activity entry in [10] was “no obvious hemolytic activity”. For the same compound, the “Acute toxicity (death of mice)” value in the series on C57BL/6 mice was “no acute toxicity”. Moreover, the “Antibacterial activity against S. aureus after incubation in human plasma” value in series [11] is given as “did not significantly affect”. Further, the “Cytotoxicity on HEK293T” value in the series with HEK293T cells is “no obvious cytotoxicity”. Besides, in the series “in vitro”, the share remaining at 10 h, 4.23 μM stood at 57.6%.

With colistin, the MIC in series [9], in series [12] and in [13] was 0.56 µM in each case.
